According to US20160199463A1, “HDAC2 DEFENDS VASCULAR ENDOTHELIUM FROM INJURY” (The Johns Hopkins University, priority 2014, published 2016):

Assays:
Arg2 = Arg2 protein expression in HAECs (Western blot); assay type: cell-based, human; conditions: MS275 2 μmol/L; CI994 1 μmol/L; MC1568 0.5 μmol/L; PC34051 100 nmol/L; MGCD0103 1 μmol/L
Description: After 48 hrs of HAEC cells transfection, cells were lysed in ice cold RIPA lysis buffer consisting of 20 mM Tris-HCl at pH 7.5, 150 mM NaCl, 1 mM EDTA, 1 mM EGTA, 1% NP40, 1% sodium deoxycholate, 1 mM Na3VO4, 2.5 mM sodium pyrophosphate, 1 mM 3-glycerophosphate, 1 μg/mL leupeptin, and a 1:1000 diluted protease inhibitor cocktail (Sigma). For immunoprecipitation studies, whole cell lysate lysates were centrifuged at 14,000×g and supernatants were precleared by incubation with Protein A/G-agarose beads for 2 h at 4° C. with rocking. Agarose beads were then pelleted by centrifugation at 1,000×g. FLAG-Arg2 in precleared lysates were immunoprecipitated by incubation overnight at 4° C. with rocking following addition of anti-FLAG antibody (10 μl). Immune complexes were eluted in 2×SDS sample buffer by boiling for 5 minutes before loading into SDS-PAGE. Western blotting analysis was performed by transferring the SDS gel onto a PVDF membrane and visualized using secondary antibodies conjugated to alkaline phosphatases.

HDAC1A = conditions: cited from earlier work

In the case of Cn1c(/C=C/C(=O)NO)ccc1/C=C/C(=O)c1cccc(F)c1 [MC1658], the “endothelial Arg2 expression, class-specific HDAC inhibitors” value (Arg2) is listed as “no substantial effects” and the IC50 (HDAC1A) is listed as 100 nM.
